From ChEMBL document CHEMBL6114967, “Design and synthesis of novel sulfur-substituted triptolide with the ability to induce autophagy through inhibition of SRSF1 expression” (Eur J Med Chem, 2025)

The compounds below were run on HepG2 (assay: Antiproliferative activity against human HepG2 cells assessed as inhibition of cell proliferation incubated for 72 hrs by MTT assay). Details: HepG2, 72 h.
Format: functional, cell-based
`CC(C)[C@]12O[C@H]1[C@@H]1O[C@@]13[C@@]1(C)CCC4=C([C@H](O)OC4=S)[C@@H]1C[C@@H]1O[C@@]13C2=O` gave an IC50 of over 10 µM.
`CC(C)[C@]12O[C@H]1[C@@H]1O[C@@]13[C@@]1(C)CCC4=C(COC4=O)[C@@H]1C[C@@H]1O[C@@]13C2=O` [TRIPTONIDE] was tested, and the IC50 was 0.05 µM.
`CC(C)[C@]12O[C@H]1[C@@H]1O[C@]13[C@]1(O[C@H]1C[C@H]1C4=C(CC[C@@]13C)C(=S)O[C@H]4O)[C@@H]2O` showed an IC50 of over 10 µM.

What follows are compounds tested on MCF7 (assay: Antiproliferative activity against human MCF7 cells assessed as inhibition of cell proliferation incubated for 72 hrs by MTT assay). Details: MCF7, 72 h.
Format: functional, cell-based
`CC(C)[C@]12O[C@H]1[C@@H]1O[C@@]13[C@@]1(C)CCC4=C([C@H](O)OC4=S)[C@@H]1C[C@@H]1O[C@@]13C2=O` gave an IC50 of over 10 µM.
With `CC(C)[C@]12O[C@H]1[C@@H]1O[C@@]13[C@@]1(C)CCC4=C(COC4=O)[C@@H]1C[C@@H]1O[C@@]13C2=O` [TRIPTONIDE] the IC50 was 0.05 µM.
`CC(C)[C@]12O[C@H]1[C@@H]1O[C@]13[C@]1(O[C@H]1C[C@H]1C4=C(CC[C@@]13C)C(=S)O[C@H]4O)[C@@H]2O` gave an IC50 of over 10 µM.

These compounds were tested on HCT-116 (assay: Antiproliferative activity against human HCT-116 cells assessed as inhibition of cell proliferation incubated for 72 hrs by MTT assay). Details: HCT-116, 72 h.
Format: functional, cell-based
`CC(C)[C@]12O[C@H]1[C@@H]1O[C@@]13[C@@]1(C)CCC4=C([C@H](O)OC4=S)[C@@H]1C[C@@H]1O[C@@]13C2=O` was tested, and the IC50 was 8.53 µM.
Compound `CC(C)[C@]12O[C@H]1[C@@H]1O[C@@]13[C@@]1(C)CCC4=C(COC4=O)[C@@H]1C[C@@H]1O[C@@]13C2=O` [TRIPTONIDE] has an IC50 of 0.13 µM.
Work on `CC(C)[C@]12O[C@H]1[C@@H]1O[C@]13[C@]1(O[C@H]1C[C@H]1C4=C(CC[C@@]13C)C(=S)O[C@H]4O)[C@@H]2O` yielded an IC50 of 5.59 µM.

The compounds below were run on U-251 (assay: Antiproliferative activity against human U-251 cells assessed as inhibition of cell proliferation incubated for 72 hrs by MTT assay). Details: U-251, 72 h.
Format: functional, cell-based
`CC(C)[C@]12O[C@H]1[C@@H]1O[C@@]13[C@@]1(C)CCC4=C([C@H](O)OC4=S)[C@@H]1C[C@@H]1O[C@@]13C2=O` gave an IC50 of over 10 µM.
`CC(C)[C@]12O[C@H]1[C@@H]1O[C@@]13[C@@]1(C)CCC4=C(COC4=O)[C@@H]1C[C@@H]1O[C@@]13C2=O` [TRIPTONIDE] showed an IC50 of 0.02 µM.
`CC(C)[C@]12O[C@H]1[C@@H]1O[C@]13[C@]1(O[C@H]1C[C@H]1C4=C(CC[C@@]13C)C(=S)O[C@H]4O)[C@@H]2O` gave an IC50 of over 10 µM.

The compounds below were run on HGC-27 (assay: Antiproliferative activity against human HGC-27 cells assessed as inhibition of cell proliferation incubated for 72 hrs by MTT assay). Details: HGC-27, 72 h.
Format: functional, cell-based
Compound `CC(C)[C@]12O[C@H]1[C@@H]1O[C@@]13[C@@]1(C)CCC4=C([C@H](O)OC4=S)[C@@H]1C[C@@H]1O[C@@]13C2=O` has an IC50 of over 10 µM.
In the case of `CC(C)[C@]12O[C@H]1[C@@H]1O[C@@]13[C@@]1(C)CCC4=C(COC4=O)[C@@H]1C[C@@H]1O[C@@]13C2=O` [TRIPTONIDE], the IC50 is reported as 0.1 µM.
Compound `CC(C)[C@]12O[C@H]1[C@@H]1O[C@]13[C@]1(O[C@H]1C[C@H]1C4=C(CC[C@@]13C)C(=S)O[C@H]4O)[C@@H]2O` has an IC50 of over 10 µM.

Each compound was assayed on AGS (assay: Antiproliferative activity against human AGS cells assessed as inhibition of cell proliferation incubated for 72 hrs by MTT assay). Details: not given.
Format: functional, cell-based
`CC(C)[C@]12O[C@H]1[C@@H]1O[C@@]13[C@@]1(C)CCC4=C([C@H](O)OC4=S)[C@@H]1C[C@@H]1O[C@@]13C2=O` was tested, and the IC50 was over 10 µM.
In the case of `CC(C)[C@]12O[C@H]1[C@@H]1O[C@@]13[C@@]1(C)CCC4=C(COC4=O)[C@@H]1C[C@@H]1O[C@@]13C2=O` [TRIPTONIDE], the IC50 is reported as 0.05 µM.
In the case of `CC(C)[C@]12O[C@H]1[C@@H]1O[C@]13[C@]1(O[C@H]1C[C@H]1C4=C(CC[C@@]13C)C(=S)O[C@H]4O)[C@@H]2O`, the IC50 is reported as over 10 µM.

What follows are compounds tested on BGC-823 (assay: Antiproliferative activity against human BGC-823 cells assessed as inhibition of cell proliferation incubated for 72 hrs by MTT assay). Details: BGC-823, 72 h.
Format: functional, cell-based
In the case of `CC(C)[C@]12O[C@H]1[C@@H]1O[C@@]13[C@@]1(C)CCC4=C([C@H](O)OC4=S)[C@@H]1C[C@@H]1O[C@@]13C2=O`, the IC50 is reported as over 10 µM.
In the case of `CC(C)[C@]12O[C@H]1[C@@H]1O[C@@]13[C@@]1(C)CCC4=C(COC4=O)[C@@H]1C[C@@H]1O[C@@]13C2=O` [TRIPTONIDE], the IC50 is reported as 0.09 µM.
For `CC(C)[C@]12O[C@H]1[C@@H]1O[C@]13[C@]1(O[C@H]1C[C@H]1C4=C(CC[C@@]13C)C(=S)O[C@H]4O)[C@@H]2O`, the IC50 was over 10 µM.

These compounds were tested on SGC-7901 (assay: Antiproliferative activity against human SGC-7901 cells assessed as inhibition of cell proliferation incubated for 72 hrs by MTT assay). Details: SGC-7901, 72 h.
Format: functional, cell-based
`CC(C)[C@]12O[C@H]1[C@@H]1O[C@@]13[C@@]1(C)CCC4=C([C@H](O)OC4=S)[C@@H]1C[C@@H]1O[C@@]13C2=O` was tested, and the IC50 was over 10 µM.
In the case of `CC(C)[C@]12O[C@H]1[C@@H]1O[C@@]13[C@@]1(C)CCC4=C(COC4=O)[C@@H]1C[C@@H]1O[C@@]13C2=O` [TRIPTONIDE], the IC50 is reported as 0.11 µM.
For `CC(C)[C@]12O[C@H]1[C@@H]1O[C@]13[C@]1(O[C@H]1C[C@H]1C4=C(CC[C@@]13C)C(=S)O[C@H]4O)[C@@H]2O`, the IC50 was over 10 µM.

Each compound was assayed on A549 (assay: Antiproliferative activity against human A549 cells assessed as inhibition of cell proliferation incubated for 72 hrs by MTT assay). Details: A549, 72 h.
Format: functional, cell-based
For `CC(C)[C@]12O[C@H]1[C@@H]1O[C@@]13[C@@]1(C)CCC4=C([C@H](O)OC4=S)[C@@H]1C[C@@H]1O[C@@]13C2=O`, the IC50 was over 10 µM.
In the case of `CC(C)[C@]12O[C@H]1[C@@H]1O[C@@]13[C@@]1(C)CCC4=C(COC4=O)[C@@H]1C[C@@H]1O[C@@]13C2=O` [TRIPTONIDE], the IC50 is reported as 0.46 µM.
`CC(C)[C@]12O[C@H]1[C@@H]1O[C@]13[C@]1(O[C@H]1C[C@H]1C4=C(CC[C@@]13C)C(=S)O[C@H]4O)[C@@H]2O` gave an IC50 of over 10 µM.

Each compound was assayed on B16-F10 (assay: Antiproliferative activity against mouse B16-F10 cells assessed as inhibition of cell proliferation incubated for 72 hrs by MTT assay). Details: B16-F10, 72 h.
Format: functional, cell-based
Compound `CC(C)[C@]12O[C@H]1[C@@H]1O[C@@]13[C@@]1(C)CCC4=C([C@H](O)OC4=S)[C@@H]1C[C@@H]1O[C@@]13C2=O` has an IC50 of over 10 µM.
`CC(C)[C@]12O[C@H]1[C@@H]1O[C@@]13[C@@]1(C)CCC4=C(COC4=O)[C@@H]1C[C@@H]1O[C@@]13C2=O` [TRIPTONIDE] showed an IC50 of 0.02 µM.
In the case of `CC(C)[C@]12O[C@H]1[C@@H]1O[C@]13[C@]1(O[C@H]1C[C@H]1C4=C(CC[C@@]13C)C(=S)O[C@H]4O)[C@@H]2O`, the IC50 is reported as over 10 µM.
